Source: patent publication US11795177B2, “Substituted quinoline analogs as aldehyde dehydrogenase 1A1 (ALDH1A1) inhibitors” (THE UNITED STATES OF AMERICA, AS REPRESENTED BY THE …, priority 2017, dated 2023)
pIC50: −log10 of the molar value. Where a name gives a salt, the structure may show the parent alone.

Columns and labels:
[1] = biological target: T1, ALDH1A1 enzyme (Homo sapiens, UniProt P00352); test: ALDH1A1 enzymatic assay (in vitro); assay type: biochemical; conditions: ALDH1A1 enzyme 20 nM, NAD+ 1 mM, propionaldehyde 80 μM; read-out: ALDH1A1 IC50
T1 sequence (P00352 1-501): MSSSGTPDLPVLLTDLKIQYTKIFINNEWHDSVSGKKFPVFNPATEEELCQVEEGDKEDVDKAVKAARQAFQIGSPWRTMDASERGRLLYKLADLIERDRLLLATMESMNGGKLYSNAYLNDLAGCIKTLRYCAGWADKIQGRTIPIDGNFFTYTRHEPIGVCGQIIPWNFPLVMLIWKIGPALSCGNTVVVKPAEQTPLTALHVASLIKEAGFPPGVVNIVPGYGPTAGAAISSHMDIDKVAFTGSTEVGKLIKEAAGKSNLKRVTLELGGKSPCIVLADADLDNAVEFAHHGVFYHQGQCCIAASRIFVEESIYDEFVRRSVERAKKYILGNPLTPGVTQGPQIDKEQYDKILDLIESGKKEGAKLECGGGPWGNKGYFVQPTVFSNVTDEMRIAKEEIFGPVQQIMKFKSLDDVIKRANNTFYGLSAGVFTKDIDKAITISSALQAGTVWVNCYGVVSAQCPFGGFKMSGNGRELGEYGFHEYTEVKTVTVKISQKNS
Method: Example 358. ALDH1A1 Enzymatic Assay (In Vitro Assay)
3 μL of ALDH1A1 enzyme (final concentration 20 nM) or assay buffer (100 mM HEPES pH 7.5 with 0.01% Tween 20) were dispensed into a 1,536-well solid-bottom black plate (Greiner Bio One, Monroe, N.C.) followed by pin-tool transfer (23 nL) of candidate inhibitors (final concentration range 968 pM to 57.2 μM) and control (Bay 11-7085, final concentration range 1.31 nM to 2.86 μM). Samples were incubated (RT, protected from light) for 15 minutes followed by a 1 μL substrate addition of NAD^+ and Propionaldehyde (final concentrations of 1 mM and 80 μM, respectively). Plates were centrifuged at 1,000 rpm for 15 seconds, then read in kinetic mode on a ViewLux High-throughput CCD imager (Perkin-Elmer) equipped with standard UV fluorescence optics (340 nm excitation, 450 nm emission) for 10 minutes. The change in fluorescence intensity over the 10-minute reaction period was normalized against no-inhibitor and no-enzyme controls and the resulting percent inhibition data were fitted for biological activity.

[2] = test system: MIA PaCa-2 cells; test: MIA PaCa2 cell-based assay (1,536-well high-content imaging ALDEFLUOR assay); parameters: species or system human; conditions: Homo sapiens, 0.5 h, ALDEFLUOR BAAA substrate 500 nM, 30 minutes
In short: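 MIA PaCa-2 cells (1,000/well), plated overnight, given BAAA substrate (500 nM) plus Hoechst 33342 (0.5 nM), then compound (16-point, 1.4 nM–47.8 μM final; 0.5% DMSO). After 30 min at 37° C, ALDH activity imaged by high-content microscopy as BAA-retaining (FITC) cells versus Hoechst-stained nuclei.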

SMILES	pIC50 [1]	pIC50 [2]
CC1(C#N)CCN(c2c(C(=O)N3CCN(C(=O)N4CCCC4)CC3)cnc3cc(F)c(F)cc23)CC1 [Example 175, 1-(6,7-difluoro-3-(4-(pyrrolidine-1-carbonyl)piperazine-1-carbonyl)quinolin-4-yl)-4-methylpiperidine-4-carbonitrile]	5.00 to 6.00	5.00 to 6.00
CNC(=O)C1CCN(C(=O)c2cnc3ccc(F)cc3c2N2CCC(C#N)(c3ccccc3)CC2)CC1 [Cpd. 327, 1-(4-(4-cyano-4-phenylpiperidin-1-yl)-6-fluoroquinoline-3-carbonyl)-N-methylpiperidine-4-carboxamide]	> 6.30	> 6.30
COc1ccc2ncc(C(=O)N3CCC(c4ccccc4)CC3)c(N3CCC4(CC3)OCCO4)c2c1 [Example 10, (6-methoxy-4-(1,4-dioxa-8-azaspiro[4.5]decan-8-yl)quinolin-3-yl)(4-phenylpiperidin-1-yl)methanone, TFA]	> 6.30	< 5.00
COc1ccc2ncc(C(=O)N3CCN(C(=O)C4CC4)CC3)c(N3CCN(c4ccncc4)CC3)c2c1 [Example 20, (4-(cyclopropanecarbonyl)piperazin-1-yl)(6-methoxy-4-(4-(pyridin-4-yl)piperazin-1-yl)quinolin-3-yl)methanone, TFA]	< 5.00	
COc1ccc2ncc(C(=O)N3CCN(C(=O)C4CC4)CC3)c(NC3CCC3)c2c1 [Example 22, (4-(cyclobutylamino)-6-methoxyquinolin-3-yl)(4-(cyclopropanecarbonyl)piperazin-1-yl)methanone, TFA]	< 5.00	
COc1ccc2ncc(C(=O)NC3CCN(C)CC3)c(N3CCC4(CC3)OCCO4)c2c1 [Example 16, 6-methoxy-N-(1-methylpiperidin-4-yl)-4-(1,4-dioxa-8-azaspiro[4.5]decan-8-yl)quinoline-3-carboxamide, TFA]	5.00 to 6.00	
COc1ccc2ncc(C(=O)N3CCN(C(=O)C4CC4)CC3)c(-c3cnn(C)c3)c2c1 [Example 41, (4-(cyclopropanecarbonyl)piperazin-1-yl)(6-methoxy-4-(1-methyl-1H-pyrazol-4-yl)quinolin-3-yl)methanone]	< 5.00	

Other lines, results leading:

pIC50 [1]	pIC50 [2]	SMILES
> 6.30	> 6.30	CN(C)C(=O)N1CCN(C(=O)c2cnc3ccsc3c2-c2ccc(C3(C#N)CC3)cc2)CC1 [Example 281, 4-(7-(4-(1-cyanocyclopropyl)phenyl)thieno[3,2-b]pyridine-6-carbonyl)-N,N-dimethylpiperazine-1-carboxamide]
> 6.30	< 5.00	CC1(C#N)CCN(c2c(C(=O)N3CCN(S(C)(=O)=O)CC3)cnc3ccccc23)CC1 [Example 97, 4-methyl-1-(3-(4-(methylsulfonyl)piperazine-1-carbonyl)quinolin-4-yl)piperidine-4-carbonitrile]
> 6.30	< 5.00	CCNC(=O)N1CCN(C(=O)c2cnc3ccc(F)cc3c2N2CCC3(CC2)OCCO3)CC1 [Example 56, N-ethyl-4-(6-fluoro-4-(1,4-dioxa-8-azaspiro[4.5]decan-8-yl)quinoline-3-carbonyl)piperazine-1-carboxamide]
> 6.30	< 5.00	CCOC(=O)N1CCN(C(=O)c2cnc3ccc(OC)cc3c2N2CCC3(CC2)OCCO3)CC1 [Example 40, Ethyl 4-(6-methoxy-4-(1,4-dioxa-8-azaspiro[4.5]decan-8-yl)quinoline-3-carbonyl)piperazine-1-carboxylate]
> 6.30	5.00 to 6.00	N#CC1(c2ccccc2)CCN(c2c(C(=O)N3CC(O)C3)cnc3ccc(F)cc23)CC1 [Cpd. 326, 1-(6-fluoro-3-(3-hydroxyazetidine-1-carbonyl)quinolin-4-yl)-4-phenylpiperidine-4-carbonitrile]
> 6.30	5.00 to 6.00	CC1(C#N)CCN(c2c(C(=O)N3CCC(S(C)(=O)=O)CC3)cnc3cc(F)c(F)cc23)CC1 [Example 190, 1-(6,7-difluoro-3-(4-(methylsulfonyl)piperidine-1-carbonyl)quinolin-4-yl)-4-methylpiperidine-4-carbonitrile]
